The record followed here is a melting point compilation (Tetko et al.; mined from patent text by program, amines drawn as free bases though some values may be those of a salt).

In general, melting point refers to the temperature of the solid-liquid transition.

In turn, `Clc1cccc(/C=C/[C@H]2CCCN2c2ncnc3[nH]cnc23)c1` had a melting point of 194 to 196 °C.

For `COc1ccc(C(=C(C)C(=O)O)c2ccc(OC)cc2)cc1`, the melting point lay in the range of 134 to 135 °C.

For `CC(C)(C)c1cc(S)n2ncnc2n1`, the melting point was in the range of 285 to 286 °C.

In turn, `CC(C)(C)OC(=O)NC(N)Cc1ccccc1` (stereo unspecified) yielded a melting point of 40 to 50 °C.

For the molecule `Cn1c(C(F)(F)F)cc(=O)n(-c2cc(OCSc3ccc(Cl)cc3)c(Cl)cc2F)c1=O`, the melting point is 141 to 142 °C.

`CC(=O)n1c(=O)oc2c(Cl)c(Cl)c(Cl)cc21` gave a melting point of 171 to 172 °C.

In turn, `O=C(CSc1nc[nH]n1)NC/C=C\COc1cc(CN2CCCCC2)ccn1` had a melting point of 65 to 67 °C.

In turn, `CCS(=O)(=O)c1ccc(Oc2ccc(Cl)c(Cl)c2)nc1` gave a melting point of 117 to 118 °C.

For the molecule `Cn1cccc1-c1cc2cccnc2[nH]1`, the melting point was 183 °C.

Molecule `CCOC(=O)c1cc(=O)c2cc3c(=O)cc(C(=O)OCC)oc3cc2[nH]1` showed a melting point of 201 to 202 °C.

Consider `CCOCc1nc2c(N)nc3cc(OCc4csc(-c5cccs5)n4)ccc3c2n1CC(C)(C)O`, for which the melting point lay in the range of 192 to 194 °C.

`Clc1cnc(Cl)c2cc(Br)ccc12` had a melting point of 134 to 135 °C.

On to `CCN1C[C@@H](C(=O)OC(C)(C)C)N(C(=O)[C@H](C)CSC(=O)c2ccccc2)C1=O`, for which the melting point lay in the range of 92 to 93 °C.

Consider `CC(c1ccc(O)cc1)(c1ccc(O)cc1)c1ccc2ccccc2c1`, for which the melting point fell in the range of 185 to 186 °C.

With `CCc1nc2c(o1)C(=O)C(Cl)=C(Nc1ccccc1)C2=O`, the melting point worked out at 159 °C.

On to `CCCOc1ccc(S(=O)(=O)N2CC[C@@H](N(C)C)C2)cc1-c1nc2cc3ncn(Cc4ccccc4)c3cc2c(=O)[nH]1`, for which the melting point turned out to be 190 °C.

`CCOC(=O)c1cccc(C2COc3cc(O)c(O)cc3C2)c1` (stereo unspecified) came in with a melting point of 131 to 133 °C.

For the molecule `CCOC(=O)C(=O)Nc1c(C)cc(C(F)(F)F)cc1[N+](=O)[O-]`, the melting point fell in the range of 118 to 120 °C.

Turning to `COC1=CC(=O)N/C1=C\C(C)C`, the melting point was 140 to 141 °C.

The molecule `CN1CCCc2ccc(O)cc21` came in with a melting point of 97 to 98 °C.

Molecule `COc1cc(-c2nc3ccc(OCCN4CCN(C)CC4)cc3n2Cc2ccccc2)cc(OC)c1OC` came in with a melting point of 113 °C.

The molecule `O=C(O)[C@H]1C[C@H](NC(=O)N2CCc3ccccc32)c2c(Cl)cc(Cl)cc2N1` (relative stereo) registered a melting point of 251 to 252 °C.

As for `Cc1c(C#N)sc2nc(CCCc3ccccc3)nc(N3CCN(C)CC3)c12`, the melting point lay within 101 to 103 °C.

Molecule `CNCC(O)C(Oc1ccc2c(c1)OCO2)c1ccccc1` (stereo unspecified) returned a melting point of 100 to 122 °C.

Turning to `CSc1ccc(-c2coc3ccc(-c4nnc(C)o4)cc23)cc1F`, the melting point was 179 to 180 °C.

The molecule `Fc1cc(F)c2nc(CCC#Cc3ccccn3)cn2c1` yielded a melting point of 130 to 131 °C.

On to `CSCCOc1ccc(-c2ccc3c(c2)C=C(C(=O)Nc2ccc(CN(C)C4CCOCC4)cc2)CCS3(=O)=O)cc1`, for which the melting point lay in the range of 222 to 224 °C.

With `Clc1ccc(CCC(Cn2ccnc2)OCc2ccc(Cl)c(Cl)c2)cc1` (stereo unspecified), the melting point lay in the range of 87.5 to 89.5 °C.

Molecule `Cc1ccc(OC2COc3ccc(O)cc3C2O)cn1` (stereo unspecified) showed a melting point of 240 to 241 °C.

Consider `Cc1nc([C@H](Cc2ccccn2)N(C=O)c2cc3ccccc3[nH]2)n(C)c1-c1ccc(-n2ccnc2)cc1`, for which the melting point was in the range of 156 to 157 °C.

`Cc1c(C2=CCC(c3ccccc3)(N(C)C)CC2)[nH]c2ccc(F)cc12` (stereo unspecified) returned a melting point of 171 to 175 °C.

In turn, `O=C1c2ccccc2C(=O)N1CCCS(=O)(=O)c1ccccc1` displayed a melting point of 126 to 127 °C.

`O=C1c2c(Br)cccc2-n2cnc(-c3noc(CCl)n3)c2[C@@H]2CCCN12`: the melting point was 242 to 244 °C.

In the case of `O=C(C=Cc1ccccc1)Nc1ccc(S(=O)(=O)O)cc1`, the melting point lay within 235 to 237 °C.

`NC1=NC(c2cccc(Oc3ccccc3)c2)N(c2cccc(Cc3ccccc3)c2)C(N)=N1` (stereo unspecified) yielded a melting point of 165 to 167 °C.

Molecule `Cn1nc(-c2c(Cl)cccc2Cl)nc1-c1cccnc1Cl` yielded a melting point of 133 to 136 °C.

`NCC1(c2onc(-c3ccc(O)cc3)c2-c2ccccc2)CC1` yielded a melting point of 220 to 225 °C.

With `COc1ccc(C2(C(C)(C)O)CCN(C)CC2)cc1`, the melting point is 114 to 115 °C.

`CN1CCOc2cc(O)ccc21` showed a melting point of 84 to 87 °C.

`CCc1[nH]n(C2CCCC2)c2nc(-c3ccccc3OC)nc(=O)c1-2` registered a melting point of 135 to 136 °C.

`NS(=O)(=O)Oc1ccc(C(=O)c2ccccc2)cc1` registered a melting point of 131 to 133 °C.

In the case of `COc1cc(OC)c(/C=C/S(=O)(=O)CS(=O)(=O)/C=C/c2c(OC)cc(OC)cc2OC)c(OC)c1`, the melting point lay within 140 to 142 °C.

In turn, `CSc1nnc(C(F)F)s1` came in with a melting point of 23 °C.

In turn, `N#Cc1cc(C(=O)Nc2cncnc2Cl)ccc1Cl` registered a melting point of 189 to 190 °C.

With `CS(=O)(=O)Nc1ccccc1NC1=CC=NC(Nc2ccc3c(c2)CNCCS3)N1Cl` (stereo unspecified), the melting point fell in the range of 141 to 143 °C.

Turning to `Nc1nc(OCc2ccc(F)cc2)ncc1F`, the melting point lay within 129 to 131 °C.

With `CC(C)(O)[C@H](CO)NC(=O)[C@@H](CC(=O)O)n1ccc(-c2ccc(-c3ccccc3)cc2)c1`, the melting point lay within 150 to 152 °C.

`COc1ccc(C(=O)NCCc2cccc(C)c2)cc1OC` returned a melting point of 108 to 109 °C.

`CN(C)C=Nc1cc(Cc2c(Cl)cccc2Cl)nc(Nc2ccc(C#N)cc2)n1` registered a melting point of 175 to 180 °C.

`COC(=O)C1Cc2c([nH]c3ccccc23)C(C)N1C(=S)SC` (stereo unspecified) came in with a melting point of 229 to 230 °C.

`O=C(O)[C@@H]1CCC(=O)N1Cc1ccccc1`: the melting point was 91 to 93 °C.

For `CN(C)c1cccc(-c2cccc(-c3ccnc4c(C(=O)c5cccs5)cnn34)c2)c1`, the melting point fell in the range of 167 to 169 °C.

`Cc1nc2ccccc2n(-c2ccc(CC(=O)O)cc2)c1=O` came in with a melting point of 179 to 182 °C.

In turn, `FC(F)(F)CSc1nc2ccccc2[nH]1` gave a melting point of 148 to 150 °C.

Consider `CS(=O)(=O)C(S(C)(=O)=O)S(=O)(=O)O`, for which the melting point was > 300 °C.

In turn, `CC(C=Cc1ccccc1-c1cc2c(cc1C)C(C)(C)CCC2(C)C)=CC(=O)O` showed a melting point of 181 to 182 °C.

Turning to `O=C(O)C(CCc1ccccc1[N+](=O)[O-])N1C(=O)c2ccccc2C1=O` (stereo unspecified), the melting point is 177 to 179 °C.

In turn, `CCCOc1nc2c(Cl)scc2c(=O)n1CCC` had a melting point of 93 to 95 °C.

Turning to `CCOC(=O)C1=C(C)NN=C(CC)C1c1cccc(OC)c1` (stereo unspecified), the melting point was 89 °C.

For `Cn1ncc(-c2ccnc(Cl)n2)c1-c1ccc(Cl)cc1Cl`, the melting point was in the range of 122 to 125 °C.

Take `O=C1C2=C(CCCC2)C(=O)N1c1cc(OCC2=CCCSC2)c(Cl)cc1F`: the melting point lay within 134 to 137 °C.

The molecule `CC(C)[C@]1(CCc2ccc(O)cc2)CC(O)=C(Sc2cc(C(C)(C)C)cc3sc(N)nc23)C(=O)O1` registered a melting point of 168 to 179 °C.

In the case of `NC(=O)C(Cc1ccccc1)NC(=O)Nc1n[nH]c(=S)s1` (stereo unspecified), the melting point fell in the range of 175 to 177 °C.

`CCN(CC)c1ccc(C2(N(c3ccccc3)c3ccc(NC(C)=O)cc3)OC(=O)c3ccccc32)c(C)c1` (stereo unspecified) displayed a melting point of 169 to 171 °C.

As to `Cn1c(Cl)c([N+](=O)[O-])c(=O)n(C)c1=O`, the melting point lay within 91 to 92 °C.

`Cc1nc2ccc3c(c2o1)OC(CN1CCC(O)(c2cccc(C(F)(F)F)c2)CC1)CO3` (stereo unspecified) returned a melting point of 148 to 151 °C.

As to `COC(=O)[C@H](O[Si](C)(C)C)[C@@H](O[Si](C)(C)C)C(=O)OC`, the melting point turned out to be 75 °C.

In turn, `CCOC(=O)N1C(NC(C)C)=NS(=O)(=O)c2c1sc(C)c2C#N` showed a melting point of 116 to 119 °C.

`On1c(C(F)(F)F)nc2c(OCc3ccccc3)cc(Br)cc21` came in with a melting point of 211 to 214 °C.

For `Cc1cc2c(-c3ccccc3)c(CC(=O)O)n(C)c(=O)c2cc1C`, the melting point fell in the range of 217 to 220 °C.

`O=C(c1ccccc1)c1ccccc1I` had a melting point of 29 to 31 °C.

In turn, `O=c1cc(CO)oc2cc(OCCCCl)ccc12` displayed a melting point of 110 to 112 °C.

In turn, `COC(=O)/C(N)=C/C(=O)/C=C/c1ccc(Cl)cc1` gave a melting point of 112 to 113 °C.

With `O=C1NC(=O)c2c1c(-c1ccccc1Cl)cc1c2c2cc(O)ccc2n1CCCSc1ccccc1`, the melting point was in the range of 229 to 231 °C.

On to `N#Cc1cc(Oc2ccc(Cl)cc2)ccc1N`, for which the melting point was in the range of 116 to 118 °C.

`OC1(c2ccncc2)CCc2ccccc21` (stereo unspecified) had a melting point of 151 °C.

In turn, `CCc1c(C(=O)c2cc(C)cc(C#N)c2)[nH]c(=O)[nH]c1=O` returned a melting point of 253 to 254 °C.

`CC(C)(C)c1nc(C=O)c[nH]1` registered a melting point of 194 to 195 °C.

Turning to `CC(N)CN(C)C(=O)c1ccccc1` (stereo unspecified), the melting point is 102 °C.

Molecule `CC(O)(C(=O)Nc1cc(S(=O)(=O)c2ccccc2)ccc1Cl)C(F)(F)F` (stereo unspecified) registered a melting point of 79 to 80 °C.

`C=C(CC(C)C)C(=O)NCCCCCC(N)=O` showed a melting point of 76 to 82 °C.

In turn, `CN1CCN(c2ccc(C(=O)NCCCCCCCCCO[N+](=O)[O-])cn2)CC1` gave a melting point of 90 to 92 °C.

`CCCCCc1cc(O)c2c3c(c(=O)oc2c1)SC(C)(C)C3` showed a melting point of 203 to 206 °C.

Molecule `Nc1nc(N)c(Br)c(OCCOCP(=O)(O)O)n1` came in with a melting point of 218 °C.

On to `CC(=O)OC1CSC(Oc2ccc(-c3ccnc(Cl)c3)nc2)C(OC(C)=O)C1OC(C)=O` (stereo unspecified), for which the melting point is 226 °C.

As to `CCOC(=O)OCC(I)=C(I)I`, the melting point lay within 49 to 50 °C.

In the case of `COc1ccc(C2=CCC(N3CCN(Cc4ccccc4)CC3)CC2)cc1` (stereo unspecified), the melting point was in the range of 126 to 128 °C.

In turn, `Cc1ccc(-n2nc3c4cc(Cc5ccccc5)ccc4[nH]c(=O)n3c2=O)cc1` showed a melting point of 299 °C.

For `CCOC(=O)c1ncc2[nH]c3cccc(Oc4ccc([N+](=O)[O-])cc4)c3c2c1COC`, the melting point fell in the range of 231 to 232 °C.

Take `COc1cc(N)cc2c1nc(C(F)F)n2-c1nc(N2CCOCC2)nc(N2CCN(S(C)(=O)=O)CC2)n1`: the melting point lay in the range of 280 to 283 °C.

Molecule `CN(CCc1c[nH]c2ccc(CNS(C)(=O)=O)cc12)C(=O)OCc1ccccc1` yielded a melting point of 118 to 120 °C.
